{
  "source": "patent US6455589B1",
  "about": "“Primary N-hydroxylamines” (The Regents of the University of California, priority 1999, dated 2002)",
  "key": {"[1]": {"test_system": "IMR90 cells", "assay": "Replicative life span of IMR90 cells (gain in PDLs, delay of senescence)", "format": "cell-based, human", "conditions": "for Gain in PDLs: continuous cultivation, compared to control untreated cells", "experimental": "Cultivating IMR90 cells in culture—Normal human […] fibroblasts (IMR90) cells were obtained from the Coriell Institute for Medical Research at a population doubling level (PDL) of 10.85. The PDLs were calculated as log2(D/Do), where D and Do are defined as the density of cells at the time of harvesting and seeding, respectively. Stock cultures were grown in 100 mm Corning tissue culture dishes containing 10 ml of Dulbecco's modified Eagle's medium (DMEM) supplemented with 10% (V/V) fetal bovine serum (Hyclone). Stock cultures were split once a week when near confluence. Cells were harvested by trypsinization for 5 min at 37° C., immediately collected in 5 ml complete DMEM, washed once with 5 ml complete DMEM and incubated for 10-15 min at 37° C. to allow the cells to recover.\nTo test the effect of hydroxylamines on replicative life span, IMR90 cells were seeded at 0.5×106 per 100 mm dish. N-hydroxylamines (N-t-butyl hydroxylamine, N-benzyl hydroxylamine, N-methyl hydroxyl- amine) were added either individually (final concentration 10 or 100 μM) or in a combination of all three N-hydroxylamines (30 μM each). The cultures were split after 7 days and seeded with fresh medium supplemented with the hydroxylamines described above. In other experiments the medium of the cultures was replaced after 3 days of seeding with fresh medium and with fresh N-hydroxylamines, the split was done as usual after 7 days from seeding. The effect of PBN on life span was tested as in (5)."}, "[2]": {"assay": "Neuron loss following brain ischemia and reperfusion injury (Examples 14-16)", "design": "species or system gerbils", "conditions": "in vivo", "experimental": "The test procedure is that reported by W. Cao, J. M. Carney, A. Duchon, R. A. Floyd and M. Chevion as “Oxygen free radical involvement in ischemia and reperfusion injury to brain, Neuroscience Letters, 88 (1988), 233. In the experiments a test compound is administered to groups of six gerbils i.p. as a single dose 30 min before 5 min bilateral carotid occlusion. The density of neuronal nuclei in a 100 micron is measured. Two controls are present—controls which receive no test compound and controls which receive no test compound and no brain ischemia. The compounds of the invention show advantages as compared to the prior art compounds.\nThe general method described above is used but the test compounds are administered i.p. as a single dose 30 min after reperfusion following 5 min ischemia.\nComparing the Subject Hydroxylamines With PBN to Determine the Relative Effectiveness for Protection of Neuronal Loss when Administered i.v. 60 min after Reperfusion Onset Following 5 min Ischemia in Gerbils Using the General Test Method Described Above"}, "[3]": {"assay": "8-arm maze test 24 hours following 5 min ischemia", "format": "in vivo", "conditions": "24 hours post 5 min ischemia, young adult gerbils", "experimental": "In this experiment, young adult (3-4 months of age) gerbils are tested to determine their ability to perform an 8-arm maze test 24 hours following an ischemic event as described above As compared to nonischemic animals, when untreated they committed many more errors. PBN and subject hydroxyamines are administered to some of the test animals. Gerbils treated with high doses of the hydroxylamines have error levels indistinguishable from those of nonischemic animals."}, "[4]": {"assay": "Infarct volume following an ischemic event (Example 18)", "format": "in vivo", "text": "The Ability of the Subject Hydroxylamines to Reduce Infarct Volume Following an Ischemic Event While PBN and the hydroxylamines are both effective at low doses, at high doses hydroxylamines gave the best protection and PBN was toxic."}, "[5]": {"assay": "Lethality protection in aged gerbils from 10 min ischemia", "format": "in vivo", "conditions": "given 30 min before 10 min ischemia", "experimental": "In this study, subject hydroxylamines and PBN are compared for their ability to impart lethality protection (% survived) in aged gerbils (18-24 months of age, n=12/group) from 10 min ischemia when given 30 min before ischemia."}, "[6]": {"format": "in vivo", "conditions": "560 mg/kg single i.p. dose", "experimental": "An important advantage of the subject hydroxylamines as compared to PBN, is its markedly diminished toxicity. Acute lethality in C57BL/6L mice is determined based upon varying sizes of single i.p. doses of hydoxylamine. […] The hydroxlamines show no toxicity at doses nearly twenty times as great."}, "[7]": {"assay": "Depression in body temperature", "format": "in vivo, mice and gerbils", "conditions": "500 mg/kg", "experimental": "Another undesirable systemic effect which has been observed in vivo with nitrone radical traps is a depression in body temperature. This toxicity can have serious health consequences and also can complicate diagnosis of other conditions. The subject hydroxylamines are administered to mice and gerbils at levels as high as 1000 mg/kg with no measurable temperature decrease. In contrast, PBN gives up to an 8° C. decrease in body temperature at a does of only 500 mg/kg."}, "[8]": {"test_system": "glutamine synthetase (GS)", "assay": "Protection of glutamine synthetase against the effects of βAP fragments", "format": "biochemical", "text": "(§1) While the hydroxylamines and PBN each show the ability to protect GS and CK against the effects of βAP fragments, the hydroxyamines give complete protection and in fact can at least partly reverse the effects of oxidation. In contrast, PBN's effectiveness is quite limited as it asymptotically levels out at a substantially incomplete level of protection."}, "[9]": {"test_system": "creatine kinase (CK)", "assay": "Protection of creatine kinase against the effects of βAP fragments", "format": "biochemical", "text": "as §1"}, "[10]": {"assay": "in vivo", "experimental": "C57BL/6J and DBA/2J male mice (35-40 g) are tested for the acute lethal effects of adriamycin and the prevention of acute lethality by pretreatment doses of subject hydroxylamines. Mice are injected i.p with either saline or subject hydroxylamines 30 minutes prior to administration of adriamycin."}, "[11]": {"test_system": "IMR90 cells", "conditions": "literature (5); cited from earlier work"}, "[12]": {"conditions": "in vivo; cited from earlier work"}, "[13]": {"conditions": "cited from earlier work"}, "[14]": {"conditions": "rat, in vivo; cited from earlier work"}, "[15]": {"conditions": "gerbils; cited from earlier work"}, "[16]": {"conditions": "rats; cited from earlier work"}, "[17]": {"test_system": "mitochondrial preparations of cerebral cortex", "conditions": "relatively high concentrations; cited from earlier work"}, "[18]": {"conditions": "300 mg/kg, in combination with adriamycin"}},
  "note": "Where two headings read alike, the source gives them in different places.",
  "data": [
    {"smiles": "CC(C)(C)[N+]([O-])=Cc1ccccc1", "note": "[PBN, α-Phenyl-N-t-butyl nitrone]", "values": [
      {"measurement": "Delay of senescence of IMR90 cells (in words)", "setting": "[1]", "value": "old solutions were more effective than fresh solutions"},
      {"measurement": "Gain in PDLs", "setting": "[1]; 200 μM", "value": 2.4, "unit": "PDLs"},
      {"measurement": "Gain in PDLs", "setting": "[1]; 800 μM", "value": 14.8, "unit": "PDLs"},
      {"measurement": "Concentration required to achieve nearly a similar gain in PDLs, relative to N-hydroxylamines", "setting": "[1]; PBN 800 μM vs N-hydroxylamines 100 μM", "value": 8, "unit": "times higher"},
      {"measurement": "Neuronal density in control gerbils without brain injury", "setting": "[2]", "value": "Neither PBN nor the subject hydroxylamines have an effect"},
      {"measurement": "Errors in 8-arm maze test", "setting": "[3]", "value": "less effective"},
      {"measurement": "Reduction of infarct volume / toxicity", "setting": "[4]; high doses", "value": "toxic"},
      {"measurement": "Reduction of infarct volume", "setting": "[4]; low doses", "value": "effective"},
      {"measurement": "Lethality protection (% survived)", "setting": "[5]", "value": "only partially effective"},
      {"measurement": "Acute toxicity", "setting": "[6]", "value": "significant toxicity"},
      {"measurement": "Decrease in body temperature", "setting": "[7]", "value": "≤ 8", "unit": "°C"},
      {"measurement": "Protection of GS against the effects of βAP fragments", "setting": "[8]", "value": "quite limited"},
      {"measurement": "Protection of CK against the effects of βAP fragments", "setting": "[9]", "value": "quite limited"},
      {"measurement": "Sedation", "setting": "[10]; 100 mg/kg, in combination with adriamycin", "value": "slight sedation"},
      {"measurement": "Combined toxicity (lethality)", "setting": "[10]; [18]", "value": "10-20%"},
      {"measurement": "Sedation", "setting": "[10]; [18]", "value": "marked sedation"},
      {"measurement": "Shift in the adriamycin dose-effect curve", "setting": "[10]; pretreatment", "value": "slight shift to the right"},
      {"measurement": "Delay of senescence in IMR90", "setting": "[11]", "value": "delays senescence"},
      {"measurement": "Age-related oxidative changes in the brains of old gerbils", "setting": "[12]", "value": "reverses"},
      {"measurement": "Senescence", "setting": "[13]; normal mice", "value": "delays senescence"},
      {"measurement": "Senescence", "setting": "[13]; senescence-accelerated mice", "value": "delays senescence"},
      {"measurement": "Mitochondrial decay in the liver of old rats", "setting": "[14]", "value": "reverses mitochondrial decay"},
      {"measurement": "Effect after oxidative damage from ischemia/reperfusion injury", "setting": "[15]", "value": "neuroprotective effect"},
      {"measurement": "Effect after oxidative damage from ischemia/reperfusion injury", "setting": "[16]", "value": "neuroprotective effect"},
      {"measurement": "Production of hydrogen peroxide", "setting": "[17]", "value": "reduces"}
    ]}
  ]
}
